Assay results taken from patent EP4534542A1, “THIOSUGAR BASED ISOTHIOCYANATES AND USES THEREOF” (Universidad de Sevilla, priority 2023, dated 2025).

Key:
HaCaT cells = test: Cell viability assay (resazurin), cytotoxicity in non-malignant cells; type: cell-based, human; conditions: Homo sapiens, HaCaT, 72 h, read-out: IC50 HaCaT (Non-malignant keratinocyte)
Protocol: (§1) Cells were grown in Dulbecco's Modified Eagle's Medium (DMEM) supplemented with 100 U/mL penicillin, 100 µg/mL streptomycin and 10% fetal bovine serum. HL60 cell line (acute myeloid leukaemia, AML) was obtained from ATCC. It was cultured in IMDM medium supplemented with 100 U/mL penicillin, 100 µg/mL streptomycin and 10% fetal bovine serum. U937 (AML) and Jurkat cells (ALL) were obtained from DMSZ, Braunschweig, Germany, and ATCC, respectively. They were cultivated in RPMI medium, supplemented with 100 U/mL penicillin, 100 µg/mL streptomycin and 10% fetal bovine serum. […] All cell lines were cultured at 37 ° C with 5% CO2 in a humidified incubator. Cell culture reagents were purchased from Biowest. Exponentially growing cells (3000-6000 cells per well) were seeded in 96-well plates. After 24 hours, cells were treated with the drugs for 72 hours. The cell viability was then estimated with the resazurin assay, a colorimetric technique based on the capability of viable cells to reduce the blue reagent resazurin to the pink-soluble product resorufin. The amount of resorufin produced is proportional to the number of viable cells. Briefly, cells were washed once with phosphate buffered saline (PBS) and 150 µL resazurin (20 µg/mL in medium) was added to each well. The plates were incubated for 3 hours at 37 °C, 5% CO2, and finally optical densities were measured at 540 and 620 nm with a multiwell plate spectrophotometer reader (Multiskan EX Labsystems). Cell viability was calculated as a percentage compared to non-treated cells. The results were expressed as the means ± standard error of the mean (SEM). All data are from at least three independent experiments.

[1] = tested on: A549 (human lung adenocarcinoma cells); test: Cell viability assay (resazurin), cytotoxic activity against solid tumours; type: cell-based
Protocol: as §1, with “The plates were incubated for 3 hours at 37 °C, 5% CO2, and finally optical densities were measured at 540 and 620 nm with a multiwell plate spectrophotometer reader (Multiskan EX Labsystems).” left out, “experiments. The selectivity index (S.I.) values were calculated over each cancer cell line as the mean of the IC50 value in the non-malignant cell line (HaCaT) by the IC50 in the respective cancer cell line obtained in each independent experiment.” for “experiments.”

[2] = tested on: MeWo (human melanoma cells); test: as above; type: cell-based
Protocol: as §1, with “The plates were incubated for 3 hours at 37 °C, 5% CO2, and finally optical densities were measured at 540 and 620 nm with a multiwell plate spectrophotometer reader (Multiskan EX Labsystems).” left out, “experiments. The selectivity index (S.I.) values were calculated over each cancer cell line as the mean of the IC50 value in the non-malignant cell line (HaCaT) by the IC50 in the respective cancer cell line obtained in each independent experiment.” for “experiments.”

[3] = tested on: T24 (human bladder cancer cells); test: as above; type: cell-based
Protocol: as §1, with “The plates were incubated for 3 hours at 37 °C, 5% CO2, and finally optical densities were measured at 540 and 620 nm with a multiwell plate spectrophotometer reader (Multiskan EX Labsystems).” left out, “experiments. The selectivity index (S.I.) values were calculated over each cancer cell line as the mean of the IC50 value in the non-malignant cell line (HaCaT) by the IC50 in the respective cancer cell line obtained in each independent experiment.” for “experiments.”

[4] = tested on: HL60 (Acute myeloid leukaemia); test: Antileukemic activity, cell viability (CCK-8 Cell Counting Kit); type: cell-based; conditions: Homo sapiens, HL-60; 18 h incubation, compounds 0 - 100 µM; read-out: IC50 Cancer cells HL60 (Acute myeloid leukaemia)
Protocol: (§2) HaCaT cells (human keratinocytes, reference control), A549 (human lung adenocarcinoma cells), MeWo (human melanoma cells) and T24 (human bladder cancer cells) were purchased from Cell Lines Service (CLS). Cells were grown in Dulbecco's Modified Eagle's Medium (DMEM) supplemented with 100 U/mL penicillin, 100 µg/mL streptomycin and 10% fetal bovine serum. HL60 cell line (acute myeloid leukaemia, AML) was obtained from ATCC. It was cultured in IMDM medium supplemented with 100 U/mL penicillin, 100 µg/mL streptomycin and 10% fetal bovine serum. U937 (AML) and Jurkat cells (ALL) were obtained from DMSZ, Braunschweig, Germany, and ATCC, respectively. They were cultivated in RPMI medium, supplemented with 100 U/mL penicillin, 100 µg/mL streptomycin and 10% fetal bovine serum. OPM-2 cell line (MM), was obtained from DMSZ, Braunschweig, Germany and cultured in RPMI medium supplemented with 100 U/mL penicillin, 100 µg/mL streptomycin, 10% fetal bovine serum and 1X GlutaMAXTM. All cell lines were cultured at 37 ° C with 5% CO2 in a humidified incubator. Cell culture reagents were purchased from Biowest.
(§3) For the leukemic cell lines, the CCK-8 Cell Counting Kit (Dojindo Molecular Technologies) was used according to manufacturers instructions. Briefly, 50.000 cells were seeded in each well of a 96 well plate, and they were treated with increased amounts (0 - 100 µM) of each of the compounds, and incubated for 18 h at 37 °C, 5% CO2. After this period, 7 µl of the CCK-8 reagent were added to each well, and cells were further incubated for 2 h at 37 °C, 5% CO2. OD at 450 nm was obtained using a MultiskanTM GO microplate reader (Thermo Fisher Scientific, Waltham, MA, EE.UU). Cell viability in each condition was normalized to the measurement obtained in the non treated samples (100%), and were represented as average ± standard error of the mean (SEM).

[5] = tested on: Jurkat (Acute lymphoblastic leukaemia); test: as above; type: cell-based; conditions: Homo sapiens, 18 h incubation, compounds 0 - 100 µM, read-out: IC50 Cancer cells Jurkat (Acute lymphoblastic leukaemia)
Protocol: as §2, §3

OPM-2 (Multiple myeloma) = test: as above; type: cell-based; conditions: Homo sapiens, 18 h incubation, compounds 0 - 100 µM, read-out: IC50 Cancer cells OPM-2 (Multiple myeloma)
Protocol: as §2, §3

[6] = tested on: U937 (Acute myeloid leukaemia); test: as above; type: cell-based; conditions: Homo sapiens, U-937; 18 h incubation, compounds 0 - 100 µM; read-out: IC50 Cancer cells U937 (Acute myeloid leukaemia)
Protocol: as §2, §3

`CC(=O)OC[C@H]1O[C@@H](S(C)(=O)=O)[C@H](OC(C)=O)[C@@H](N=C=S)[C@@H]1OC(C)=O` [Compound 19β, Methyl 2,4,6-tri-O-acetyl-3-isothiocyanato-1,3-dideoxy-1-sulfonyl-β-D-glucopyranose] was tested. Which IC50 (HaCaT cells) did it give?
Its IC50 is 138 ± 22.5 µM.

And the IC50 ([1]; Homo sapiens, A549, 72 h, read-out: IC50 A549 (Lung adenocarcino ma))?
Its IC50 is 98 ± 24 µM.

What about the “S.I. A549 (Selectivity Index)” value ([1]; IC50 HaCaT divided by IC50 A549, mean of independent experiments) of the same compound?
The value was 1.5±0.1.

What about the IC50 ([2]; Homo sapiens, MeWo, 72 h, read-out: IC50 MeWo (Melanoma; BRAF WT)) of the same compound?
The IC50 was 77.1 ± 14.4 µM.

What about the “S.I. MeWo (Selectivity Index)” value ([2]; IC50 HaCaT divided by IC50 MeWo, mean of independent experiments) of the same compound?
The value was 1.9±0.3.

And the IC50 ([3]; Homo sapiens, 72 h, read-out: IC50 T24 (Bladder cancer))?
The IC50 was 51.8 ± 2.7 µM.

And the “S.I. T24 (Selectivity Index)” value ([3]; IC50 HaCaT divided by IC50 T24, mean of independent experiments)?
Its value is 2.6±0.3.

What about the IC50 [4] of the same compound?
The IC50 was about 24.7 µM.

And the IC50 [5]?
Its IC50 is 37.1 µM.

And the IC50 (OPM-2 (Multiple myeloma))?
The IC50 was about 48.5 µM.

And the IC50 [6]?
Its IC50 is 45.7 µM.
